Experimental data reported in patent US20230274811A1, “METHODS OF MAKING PROSTATE CANCER TREATMENT DECISIONS” (Progenics Pharmaceuticals, Inc., priority 2020, published 2023).

Tested on: biochemically recurrent prostate cancer
Assay: CONDOR: 18F-DCFPyL PET/CT correct localization rate, detection rate and PPV vs composite standard of truth
Type: in vivo, men
Text: 1. Correct Localization Rate (CLR), defined as percentage of subjects with a one-to-one correspondence between localization of at least one lesion identified on ^18F-DCFPyL PET/CT imaging and the composite truth standard, defined as either evaluable histopathology, informative correlative imaging, or PSA response after radiation therapy.
Men ≥18 years of age with a rising PSA after definitive PCa therapy and negative or equivocal imaging were enrolled. […] The primary endpoint of this study was the correct localization rate (CLR). CLR is defined as the percentage of patients with a one-to-one correspondence between localization of at least one lesion identified by ^18F-DCFPyL PET/CT and a composite standard of truth (SOT). SOT was determined by two central readers and included either histopathology or another standard imaging modality (i.e., fluciclovine-PET/CT, CT/MRI, bone scan) or alternatively, by a post-treatment PSA change for irradiated lesions.
Methods: Men ≥18 years—with rising PSA after definitive therapy and negative or equivocal standard of care imaging (e.g., CT/MRI, bone scintigraphy) were enrolled. A single 9 mCi (333 MBq)±20% dose of PyL was injected, followed by PET/CT 1-2 hours later. Primary endpoint was correct localization rate (CLR), defined as percentage of pts with a 1:1 correspondence between at least one lesion identified by PyL-PET/CT and the composite standard of truth: pathology, correlative imaging, or PSA response. […] The secondary endpoint, impact of PyL-PET/CT on clinical management of pts was based on the treating physician's documented clinical plans before and after PyL-PET/CT.
Men with a PSA ≥0.2 ng/mL after surgery or ≥2 ng/mL above the nadir after radiation therapy were eligible for enrollment. The primary endpoint was the correct localization rate (CLR) defined as positive predictive value with an additional requirement of anatomical lesion colocalization between ^18F-DCFPyL-PET/CT and a composite standard of truth (SOT). The SOT consisted of, in descending priority: 1) histopathology, 2) correlative imaging findings determined by two central readers, or 3) post-radiation PSA response. […] The impact of ^18F-DCFPyL-PET/CT as defined by change in management intent, and safety were evaluated as secondary endpoints.
Patients voided prior to imaging, and PET and non-contrast CT images were acquired from the mid-thigh through the skull vertex. All ^18F-DCFPyL-PET/CT scans were submitted to the central imaging core laboratory for assessment. Patients with positive ^18F-DCFPyL-PET/CT scans based on local interpretation were scheduled for post-^18F-DCFPyL-PET/CT follow-up to verify suspected lesion(s) based on a composite standard of truth (SOT). (FIG. 16)
Because of the expected absence of an amenable lesion for histologic verification in all patients, a composite SOT was employed based on assessment performed or initiated within 60 days following ^18F-DCFPyL-PET/CT. These reference standards were defined (in descending priority) as (1) evaluable histopathology results from prostatectomy, salvage pelvic lymph node dissection or biopsy; (2) imaging findings using ^18F-fluciclovine or ^11C-choline PET, or focused MRI or CT; or (3) if neither of the above was available or informative, confirmed PSA response up to 9 months post-radiation initiation (with no concomitant ADT) of all PET-positive foci. PSA response was defined as PSA decline by ≥50% from baseline that was confirmed on repeat measurement within 4 weeks, based on central laboratory results.
A central imaging core laboratory was employed to independently manage image handling, reader training, reader sessions and data collection. […] The readers had no access to any clinical information, including PSA values or other imaging available for a patient. […]

[1] = SOT Correlative imaging n=100, Reader 1
[2] = SOT Correlative imaging n=100, Reader 2

O=C(O)CC[C@H](NC(=O)N[C@@H](CCCCNC(=O)c1ccc([18F])nc1)C(=O)O)C(=O)O [18F-DCFPyL, 2-(3-{1-carboxy-5-[(6-[^18F]fluoro-pyridine-3-carbonyl)-amino]-pentyl}ureido)-pentanedioic acid]
pts with PSMA-avid lesion(s), local radiology assessment (142/208): 69.3%
PPV by anatomic region (Extra-pelvic, Reader 1 (CONDOR Reader 4 in Table 17)): 33 (67.3) %
PPV by anatomic region (Extra-pelvic, Reader 1 (CONDOR Reader 4 in Table 17), listed as PyLARIFY): 67%
PPV by anatomic region (Extra-pelvic, Reader 2 (CONDOR Reader 5 in Table 17)): 31 (67.4) %
PPV by anatomic region (Extra-pelvic, Reader 2 (CONDOR Reader 5 in Table 17), listed as PyLARIFY): 67%
PPV by anatomic region (Extra-pelvic, Reader 3 (CONDOR Reader 6 in Table 17)): 30 (69.8) %
PPV by anatomic region (Extra-pelvic, Reader 3 (CONDOR Reader 6 in Table 17), listed as PyLARIFY): 70%
CLR by baseline PSA (PSA 0.5-<1.0 ng/mL, Reader 1): 12 (75.0) %
Detection rate by baseline PSA (PSA 0.5-<1.0 ng/mL, Reader 1): 21 (56.8) %
CLR by baseline PSA (PSA 0.5-<1.0 ng/mL, Reader 2): 10 (76.9) %
Detection rate by baseline PSA (PSA 0.5-<1.0 ng/mL, Reader 2): 45.9%
CLR by baseline PSA (PSA 0.5-<1.0 ng/mL, Reader 3): 11 (73.3) %
Detection rate by baseline PSA (PSA 0.5-<1.0 ng/mL, Reader 3): 19 (51.4) %
CLR by baseline PSA (PSA 1.0-<2.0 ng/mL, Reader 1): 17 (85.0) %
Detection rate by baseline PSA (PSA 1.0-<2.0 ng/mL, Reader 1): 24 (72.7) %
CLR by baseline PSA (PSA 1.0-<2.0 ng/mL, Reader 2): 14 (77.8) %
Detection rate by baseline PSA (PSA 1.0-<2.0 ng/mL, Reader 2): 22 (66.7) %
CLR by baseline PSA (PSA 1.0-<2.0 ng/mL, Reader 3): 15 (83.3) %
Detection rate by baseline PSA (PSA 1.0-<2.0 ng/mL, Reader 3): 19 (57.6) %
CLR by baseline PSA (PSA 2.0 < 5.0 ng/mL, Reader 1): 21 (91.3) %
Detection rate by baseline PSA (PSA 2.0 < 5.0 ng/mL, Reader 1): 28 (84.8) %
CLR by baseline PSA (PSA 2.0 < 5.0 ng/mL, Reader 2): 24 (92.3) %
Detection rate by baseline PSA (PSA 2.0 < 5.0 ng/mL, Reader 2): 29 (87.9) %
CLR by baseline PSA (PSA 2.0 < 5.0 ng/mL, Reader 3): 20 (90.9) %
Detection rate by baseline PSA (PSA 2.0 < 5.0 ng/mL, Reader 3): 27 (81.8) %
CLR by baseline PSA (PSA <0.5 ng/mL, Reader 1): 11 (73.3) %
Detection rate by baseline PSA (PSA <0.5 ng/mL, Reader 1): 29 (42.0) %
CLR by baseline PSA (PSA <0.5 ng/mL, Reader 2): 76.9%
Detection rate by baseline PSA (PSA <0.5 ng/mL, Reader 2): 23 (33.3) %
CLR by baseline PSA (PSA <0.5 ng/mL, Reader 3): 11 (73.3) %
Detection rate by baseline PSA (PSA <0.5 ng/mL, Reader 3): 25 (36.2) %
CLR by baseline PSA (PSA ≥5 ng/mL, Reader 1): 27 (96.4) %
Detection rate by baseline PSA (PSA ≥5 ng/mL, Reader 1): 29 (96.7) %
CLR by baseline PSA (PSA ≥5 ng/mL, Reader 2): 28 (96.6) %
Detection rate by baseline PSA (PSA ≥5 ng/mL, Reader 2): 29 (96.7) %
CLR by baseline PSA (PSA ≥5 ng/mL, Reader 3): 26 (96.3) %
Detection rate by baseline PSA (PSA ≥5 ng/mL, Reader 3): 27 (90.0) %
PPV by anatomic region (Pelvic, Reader 1 (CONDOR Reader 4 in Table 17)): 41 (67.2) %
PPV by anatomic region (Pelvic, Reader 1 (CONDOR Reader 4 in Table 17), listed as PyLARIFY): 67%
PPV by anatomic region (Pelvic, Reader 2 (CONDOR Reader 5 in Table 17)): 40 (72.7) %
PPV by anatomic region (Pelvic, Reader 2 (CONDOR Reader 5 in Table 17), listed as PyLARIFY): 73%
PPV by anatomic region (Pelvic, Reader 3 (CONDOR Reader 6 in Table 17)): 39 (70.9) %
PPV by anatomic region (Pelvic, Reader 3 (CONDOR Reader 6 in Table 17), listed as PyLARIFY): 71%
PPV by anatomic region (Prostatic (prostate bed), Reader 1 (CONDOR Reader 4 in Table 17), listed as PyLARIFY): 80%
PPV by anatomic region (Prostatic (prostate bed), Reader 2 (CONDOR Reader 5 in Table 17)): 30 (83.3) %
PPV by anatomic region (Prostatic (prostate bed), Reader 2 (CONDOR Reader 5 in Table 17), listed as PyLARIFY): 83%
PPV by anatomic region (Prostatic (prostate bed), Reader 3 (CONDOR Reader 6 in Table 17)): 27 (75.0) %
PPV by anatomic region (Prostatic (prostate bed), Reader 3 (CONDOR Reader 6 in Table 17), listed as PyLARIFY): 75%
CLR (TP/TP + FP) (SOT CT n=6, Reader 1): (80.0%)
Negative PyL Scan (SOT CT n=6, Reader 1): (16.7%)
Positive PyL Scan (SOT CT n=6, Reader 1): (83.3%)
CLR (TP/TP + FP) (SOT CT n=6, Reader 2): (100.0%)
Negative PyL Scan (SOT CT n=6, Reader 2): (16.7%)
Positive PyL Scan (SOT CT n=6, Reader 2): (83.3%)
CLR (TP/TP + FP) (SOT CT n=6, Reader 3): (80.0%)
Negative PyL Scan (SOT CT n=6, Reader 3): (16.7%)
Positive PyL Scan (SOT CT n=6, Reader 3): (83.3%)
CLR (TP/TP + FP) [1]: (88.0%)
Negative PyL Scan [1]: (18.0%)
PPV (TP/TP + FP) [1]: (89.0%)
Positive PyL Scan [1]: (82.0%)
CLR (TP/TP + FP) [2]: (88.6%)
Negative PyL Scan [2]: (24.0%)
PPV (TP/TP + FP) [2]: (89.5%)
Positive PyL Scan [2]: (76.0%)
